Where “and” joins values, the source holds several entries; their conditions need not be identical. Identical values can stand only once. Like-named read-outs stand apart in the source and are kept apart here.
Experiments:
[1] = molecular target: T1, human insulin receptor (Homo sapiens, UniProt P06213); experiment: Insulin receptor activation assay (CHO cells overexpressing human insulin receptor, Ab-3 capture, tyrosine kinase activity); format: cell-based; details: for % activation, tyrosine kinase activity compared to 10 nM insulin stimulation (Study 1) / % activation, tyrosine kinase activity compared to 10 nM insulin stimulation (Study 2): test concentration 100 μM; for Study 1, cpm, phosphoryl incorporation by tyrosine kinase activities / Study 2, cpm, phosphoryl incorporation by tyrosine kinase activities: hydroxyfuroic acid compounds 100 μM, insulin 10 nM
T1 construct: expressed in transfected cells; host or cells: CHO cells (gift of Dr. Richard Roth, Stanford University)
Experimental: The insulin receptor activation assay is based on the assay described by Zhang et al. with minor modifications. Briefly, approximately 100,000 CHO cells overexpressing human recombinant insulin receptor were suspended in 100 μl of Ham's F-12 medium containing 10% fetal bovine serum (FBS) and seeded into each well of a 96-well plate. Cells were incubated at 37°C with 5% CO2 aeration overnight. CHO cells were rinsed with phosphate buffered saline (PBS) 3 times and starved in serum free Ham's F-12 medium for 2 hours before being stimulated with desired concentration of insulin or test compound for 20 minutes. Test compounds were predissolved in DMSO as 100× stocks and serially diluted when necessary. Stimulated CHO cells were then rinsed 3 times with PBS and lysed in 60 μl of lysis buffer. Fifty μl of the lysate was transferred to a well on a Flexible Assay Plate that was precoated with Ab-3 antibody recognizing the β-subunit of insulin receptor. The well was then rinsed 3 times with Tris buffered saline (TBS) containing 0.1% Tween20 and thrown dried by hand before 10 μl of tyrosine kinase reaction mixture (50 mM HEPES, pH7.4, 5 mM MgCl2, 5 mM MnCl2, 1 mg/mL polyGlu/Tyr and 250,000 cpm γ-P^33 ATP/well) was added. The reaction was carried out at 25°C for 40 minutes and terminated by adding 50 μl ice cold 100 mM phosphoric acid. Fifty μl of the stopped reaction mixture was then transferred to an inch square P81 paper. The P81 paper was air dried and then rinsed in Millipore water 5 times to remove leftover radioactive ATP and product ADP. Five mL of scintillation cocktail was added to the paper before the count was read in a liquid scintillation counter.
(§1) The 50% effective or inhibition concentrations were determined with the standard curve analysis of SigmaPlot 8.02. The nonlinear regression equation is y = min+(max-min)/(1+(x/EC50)^Hill Slope) where y is the observed responses; x is the dose concentrations; max and min are approximated by the program automatically during the calculation.
To validate the insulin receptor activation assay, dose response curve of bovine insulin was determined. […] In subsequent experiments, we routinely included 1, 10, and 100 nM insulin as standard reference. […] For simplicity, the efficacies of hydroxyfuroic acid compounds were expressed as percentage of activities comparing to the response provided by 10 nM insulin stimulation in parallel. To distinguish human insulin receptor kinase from other tyrosine kinases in CHO cells, Ab-3, a human insulin receptor β-subunit specific monoclonal antibody, was used to absorb insulin receptor from the CHO cell lysate, so the radioactivity catalyzed by captured tyrosine kinase is attributable to insulin receptor tyrosine kinase activity.

[2] = molecular target: T2, EGF receptor (ErbB1) (Homo sapiens, UniProt P00533); experiment: EGF receptor (ErbB1) tyrosine kinase activity assay; format: biochemical; details: Fig. 6B
T2 construct: purchased R&D systems (Minneapolis, MN)
Experimental: The reaction condition of EGF receptor (ErbB1) was similar to that of IGF-1 receptor reaction except 0.04 μg/μl polyGlu/Tyr substrate and 0.3 ng/μl EGF receptor (ErbB1) were used, and the reaction time was 15 minutes. All other conditions or processes were the same. The EGF receptor tyrosine kinase reaction was carried out with subsaturating concentrations of substrates for better sensitivity to activator or inhibitor influence.
as §1

[3] = test system: CHO cells; experiment: in vitro; format: cell-based; details: Chinese hamster, 24 h
Experimental: (§2) Approximately 5,000 CHO cells suspended in 100 μl D-MEM containing 10% FBS were seeded in each well of a 96-well plate overnight before the cytotoxicity assay. Test compounds were predissolved as 10× solution in 10% DMSO, 10% ethanol, 80% PBS and 10 μl of this 10× test compound solution were added to each well. After 24 hours incubation, medium containing test compound was removed by aspiration and 3 rinses of PBS. One hundred μl of serum medium was replenished before 20 μl methylthiazolyldiphenyl-tetrazolium bromide (MTT, 2.5 mg/mL) and 1 μl phenazine methosulfate (PMS, 50 μM) was added to each well before a 3-hour further incubation at 37°C. Optical density at 450 nm was measured with an ELISA reader. LC50 is defined as the concentration of compound that causes 50% drop of cell viability in this test.

[4] = in vitro; format: cell-based; details: Chinese hamster, LC50, cytotoxicity
Experimental: as §2

[5] = molecular target: T3, Recombinant human IGF-1 receptor (Homo sapiens, UniProt P08069); experiment: IGF-1 receptor tyrosine kinase activity assay; format: biochemical; details: mid μM of compound, Fig. 6A
T3 construct: purchased R&D systems (Minneapolis, MN)
Experimental: The reaction was carried out at pH7.0 in the presence of 50 mM HEPES, 5 mM MgCl2, 0.01 μg/μl polyGlu/Tyr substrate, 5 mM DTT, 250,000 cpm radioactive ATP, and 0.4 ng/μl IGF-1R tyrosine kinase with a final volume of 100 μl at 37°C for 10 minutes. The IGF-1 receptor tyrosine kinase reaction was carried out with subsaturating concentrations of substrates for better sensitivity to activator or inhibitor influence. Test compound D-410639 was predissolved in DMSO as 20× stock. The reaction was stopped by the addition of 100 μl of 25 mM EDTA (pH8), and 85 μl of the stopped reaction mix was blotted on an inch square P81 paper. P81 paper was air dried before rinsed 5 times in Millipore water to remove non-protein phosphorus. Five mL scintillation cocktail was added to the P81 paper before the counts were read with a liquid scintillation counter.
as §1

[6] = molecular target: T4, FGF receptor 3 (Homo sapiens, UniProt P22607); experiment: FGF receptor 3 tyrosine kinase activity assay; format: biochemical; details: Fig. 6C
T4 construct: purchased R&D systems (Minneapolis, MN)
Experimental: The reaction condition of FGF receptor 3 was similar to that of EGF receptor except 0.1 μg/μl polyGlu/Tyr substrate and 0.05 ng/μl FGF-receptor 3 were used instead. All other conditions or processes were the same. The FGF receptor 3 tyrosine kinase reaction was carried out with subsaturating concentrations of substrates for better sensitivity to activator or inhibitor influence.
as §1

[7] = test system: db/db mice; parameters: method as in PMID 10320380, PMID 11237209; details: cited from earlier work
[8] = test system: EGF receptor (ErbB1); parameters: method as in Zhang et al. [19]; details: ref Zhang et al. [19]; cited from earlier work
[9] = molecular target: insulin receptor; details: cited from earlier work
[10] = side by side comparison, Fig. 3, read-out: EC50, insulin receptor tyrosine kinase activation
[11] = read-out: EC50, insulin receptor activation, reported previously

T3 sequence (P08069 31-1367): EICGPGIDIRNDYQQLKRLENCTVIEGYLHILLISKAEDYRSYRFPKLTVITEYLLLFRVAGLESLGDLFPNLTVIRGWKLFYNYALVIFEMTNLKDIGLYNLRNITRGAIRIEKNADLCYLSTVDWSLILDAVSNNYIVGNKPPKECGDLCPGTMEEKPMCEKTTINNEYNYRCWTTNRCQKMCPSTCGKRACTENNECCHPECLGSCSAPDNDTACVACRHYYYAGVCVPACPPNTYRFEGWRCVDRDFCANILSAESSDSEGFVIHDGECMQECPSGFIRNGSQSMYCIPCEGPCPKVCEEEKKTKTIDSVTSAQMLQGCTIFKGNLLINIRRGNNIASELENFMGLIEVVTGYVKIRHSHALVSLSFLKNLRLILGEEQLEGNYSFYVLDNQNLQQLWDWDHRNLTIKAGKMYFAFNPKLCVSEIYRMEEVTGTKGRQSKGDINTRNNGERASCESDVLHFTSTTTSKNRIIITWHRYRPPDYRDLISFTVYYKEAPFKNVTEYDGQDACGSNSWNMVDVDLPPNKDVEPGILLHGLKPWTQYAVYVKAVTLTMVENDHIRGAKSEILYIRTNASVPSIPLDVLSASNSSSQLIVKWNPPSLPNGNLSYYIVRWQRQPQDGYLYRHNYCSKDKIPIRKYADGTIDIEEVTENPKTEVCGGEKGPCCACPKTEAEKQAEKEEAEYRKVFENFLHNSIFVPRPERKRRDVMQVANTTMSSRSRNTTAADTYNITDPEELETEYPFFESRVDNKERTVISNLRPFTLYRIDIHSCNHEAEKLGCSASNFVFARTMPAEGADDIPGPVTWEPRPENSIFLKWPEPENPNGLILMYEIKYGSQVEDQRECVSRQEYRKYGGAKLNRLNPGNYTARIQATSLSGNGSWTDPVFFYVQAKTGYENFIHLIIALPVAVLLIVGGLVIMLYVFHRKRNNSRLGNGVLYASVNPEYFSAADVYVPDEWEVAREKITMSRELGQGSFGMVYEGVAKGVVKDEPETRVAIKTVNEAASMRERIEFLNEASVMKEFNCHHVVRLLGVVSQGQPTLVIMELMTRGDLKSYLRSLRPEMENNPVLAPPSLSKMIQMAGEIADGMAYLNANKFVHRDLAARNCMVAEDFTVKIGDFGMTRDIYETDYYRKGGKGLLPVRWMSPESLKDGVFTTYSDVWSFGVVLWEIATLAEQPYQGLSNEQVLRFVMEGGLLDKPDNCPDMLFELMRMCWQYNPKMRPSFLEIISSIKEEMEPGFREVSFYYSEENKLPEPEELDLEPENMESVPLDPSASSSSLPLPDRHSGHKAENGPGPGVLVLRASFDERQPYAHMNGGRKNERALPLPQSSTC
T4 sequence (P22607 23-806): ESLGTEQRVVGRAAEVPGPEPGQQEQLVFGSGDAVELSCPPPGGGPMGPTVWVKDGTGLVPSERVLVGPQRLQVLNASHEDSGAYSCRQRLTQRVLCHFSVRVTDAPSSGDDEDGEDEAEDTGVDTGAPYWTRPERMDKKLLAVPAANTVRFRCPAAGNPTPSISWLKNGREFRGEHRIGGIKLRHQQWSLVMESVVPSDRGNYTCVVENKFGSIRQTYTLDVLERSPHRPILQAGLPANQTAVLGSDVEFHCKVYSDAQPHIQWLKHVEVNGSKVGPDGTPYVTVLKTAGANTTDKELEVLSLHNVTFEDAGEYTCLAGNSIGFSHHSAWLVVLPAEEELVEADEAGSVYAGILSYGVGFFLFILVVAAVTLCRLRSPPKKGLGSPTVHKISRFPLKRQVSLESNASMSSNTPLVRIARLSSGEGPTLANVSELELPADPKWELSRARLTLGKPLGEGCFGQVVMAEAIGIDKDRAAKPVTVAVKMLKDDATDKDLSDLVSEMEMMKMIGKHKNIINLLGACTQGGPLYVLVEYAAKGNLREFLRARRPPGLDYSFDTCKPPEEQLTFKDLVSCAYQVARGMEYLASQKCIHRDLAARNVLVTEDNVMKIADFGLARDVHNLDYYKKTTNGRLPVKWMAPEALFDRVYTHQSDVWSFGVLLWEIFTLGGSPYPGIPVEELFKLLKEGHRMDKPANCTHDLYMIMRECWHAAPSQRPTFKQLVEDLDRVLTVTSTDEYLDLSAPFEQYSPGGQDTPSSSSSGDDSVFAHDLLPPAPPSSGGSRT
T2 sequence (P00533 25-1210): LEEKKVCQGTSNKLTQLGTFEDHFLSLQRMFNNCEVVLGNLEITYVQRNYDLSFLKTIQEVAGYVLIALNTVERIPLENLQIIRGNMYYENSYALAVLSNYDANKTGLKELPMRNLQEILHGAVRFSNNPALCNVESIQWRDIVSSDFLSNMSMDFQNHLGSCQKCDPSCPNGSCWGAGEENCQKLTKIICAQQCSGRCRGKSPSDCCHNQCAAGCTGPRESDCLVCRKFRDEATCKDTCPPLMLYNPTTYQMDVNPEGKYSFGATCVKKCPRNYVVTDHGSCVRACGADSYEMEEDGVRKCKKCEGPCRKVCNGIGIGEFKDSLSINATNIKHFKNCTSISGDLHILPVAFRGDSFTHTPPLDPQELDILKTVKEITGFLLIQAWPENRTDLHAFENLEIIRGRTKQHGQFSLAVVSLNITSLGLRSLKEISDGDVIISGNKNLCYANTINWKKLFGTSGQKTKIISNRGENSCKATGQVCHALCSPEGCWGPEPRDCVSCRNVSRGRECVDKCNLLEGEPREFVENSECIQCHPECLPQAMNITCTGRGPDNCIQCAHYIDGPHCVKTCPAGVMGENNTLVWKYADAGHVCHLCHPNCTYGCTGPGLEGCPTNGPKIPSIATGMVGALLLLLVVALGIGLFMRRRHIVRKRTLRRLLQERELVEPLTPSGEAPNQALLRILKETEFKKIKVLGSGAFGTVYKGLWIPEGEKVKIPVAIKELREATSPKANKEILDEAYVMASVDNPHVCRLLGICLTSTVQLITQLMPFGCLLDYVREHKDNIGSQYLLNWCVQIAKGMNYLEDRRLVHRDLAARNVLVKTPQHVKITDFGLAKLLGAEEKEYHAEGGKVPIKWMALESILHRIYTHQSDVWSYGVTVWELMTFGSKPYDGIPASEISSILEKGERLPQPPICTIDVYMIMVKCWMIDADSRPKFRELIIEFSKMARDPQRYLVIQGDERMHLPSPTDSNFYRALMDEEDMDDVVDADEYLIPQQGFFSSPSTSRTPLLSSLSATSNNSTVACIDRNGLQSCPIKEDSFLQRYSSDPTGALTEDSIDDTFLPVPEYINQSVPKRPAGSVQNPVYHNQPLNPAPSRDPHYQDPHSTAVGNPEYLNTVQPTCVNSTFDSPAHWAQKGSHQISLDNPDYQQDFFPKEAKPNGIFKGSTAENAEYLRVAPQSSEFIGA

O=C(O)c1oc(C(=O)c2c[nH]c3c(CCCO)cccc23)c(O)c1-c1c[nH]c2ccccc12 [Compound D-410637]
% activation, tyrosine kinase activity compared to 10 nM insulin stimulation (Study 1) [1]: 18.9%

O=C(O)c1oc(C(=O)c2c[nH]c3c(CCCCO)cccc23)c(O)c1-c1c[nH]c2ccccc12 [Compound D-410638]
% activation, tyrosine kinase activity compared to 10 nM insulin stimulation (Study 1) [1]: 31.3%

O=C(O)c1oc(C(=O)c2c[nH]c3c(CCCCCO)cccc23)c(O)c1-c1c[nH]c2ccccc12 [Compound D-410639]
IC50 [2]: 1.8 µM | insulin receptor activation efficacy relative to 10 nM insulin (range over Study 1 and 2) ([1]; 100 μM, both studies): 72-89% | Study 1, cpm, phosphoryl incorporation by tyrosine kinase activities [1]: 5590 cpm | % activation, tyrosine kinase activity compared to 10 nM insulin stimulation (Study 1) [1]: 89.4% | Study 2, cpm, phosphoryl incorporation by tyrosine kinase activities [1]: 1181 cpm | % activation, tyrosine kinase activity compared to 10 nM insulin stimulation (Study 2) [1]: 72.3% | EC50 [1, 10]: 33 µM and 32.9 µM | CC50 [3]: 296 µM | fold less cytotoxic than DMAQ B1 [3]: 128 fold | CC50 at 24 h [4]: ~296 µM | increase of IGF-1 receptor activity from the base line [5]: 60-70% | IC50 [6]: 26.5 µM

O=C(O)c1sc(C(=O)c2c[nH]c3c(CCCCCO)cccc23)c(O)c1-c1c[nH]c2ccccc12 [Compound D-410640]
dose response of insulin receptor activation efficacy ([1]; normalized against 10 nM insulin, Fig. 4): levels off at 50 μM and tapers off by 100 μM

CCCCCc1cccc2c(C(=O)c3oc(C(=O)O)c(-c4c[nH]c5ccccc45)c3O)c[nH]c12 [Compound D-410641]
Study 2, cpm, phosphoryl incorporation by tyrosine kinase activities [1]: 792.7 cpm | % activation, tyrosine kinase activity compared to 10 nM insulin stimulation (Study 2) [1]: 48.6%

O=C(O)c1oc(C(=O)c2c[nH]c3c(CCCC(CO)CO)cccc23)c(O)c1-c1c[nH]c2ccccc12 [Compound D-410642]
Study 2, cpm, phosphoryl incorporation by tyrosine kinase activities [1]: 659.3 cpm | % activation, tyrosine kinase activity compared to 10 nM insulin stimulation (Study 2) [1]: 40.4%

O=C(O)CCCCc1cccc2c(C(=O)c3oc(C(=O)O)c(-c4c[nH]c5ccccc45)c3O)c[nH]c12 [Compound D-410643]
Study 2, cpm, phosphoryl incorporation by tyrosine kinase activities [1]: 799 cpm | % activation, tyrosine kinase activity compared to 10 nM insulin stimulation (Study 2) [1]: 48.9%

O=C(O)CCc1cccc2c(C(=O)c3oc(C(=O)O)c(-c4c[nH]c5ccccc45)c3O)c[nH]c12 [Compound D-410644]
Study 2, cpm, phosphoryl incorporation by tyrosine kinase activities [1]: 357.3 cpm | % activation, tyrosine kinase activity compared to 10 nM insulin stimulation (Study 2) [1]: 21.9%

C=CC(C)(C)c1[nH]c2ccccc2c1C1=C(O)C(=O)C(c2c[nH]c3c(CC=C(C)C)cccc23)=C(O)C1=O [DMAQ B1, Demethylasterriquinone B1]
CC50 at 24 h [4]: 2.3 µM | effect on blood glucose [7]: lower blood glucose in db/db mice | activation potential on EGF receptor (ErbB1) [8]: minor activation potential | EC50 [9, 11]: 5 µM

Cn1cc(C2=C(O)C(=O)C(c3ccccc3)=C(O)C2=O)c2ccccc21 [compound 2, phenylindolyldihydroxyquinone, reference compound]
EC50 [1, 10]: 39 µM and 38.9 µM | CC50 at 24 h [4]: 66.5 µM | EC50 [9, 11]: 0.3 µM

bovine insulin: bovine insulin, standard reference of the insulin receptor activation assay
Study 1, cpm, phosphoryl incorporation by tyrosine kinase activities [1]: 6250 cpm | Study 2, cpm, phosphoryl incorporation by tyrosine kinase activities [1]: 1632.5 cpm | EC50 ([1]; assay validation dose response curve, read-out: EC50 of bovine insulin, insulin receptor activation): ~0.0051 µM | EC50 ([9]; ref Liu et al. [21], read-out: EC50 of insulin, reported): 0.001 µM

diisoprenylindolylasterriquinone [Compound L-767827]
insulin receptor tyrosine kinase activation potential [9]: no insulin receptor tyrosine kinase activation potential

From article PMC2733134, “A novel hydroxyfuroic acid compound as an insulin receptor activator - structure and activity relationship of a prenylindole moiety to insulin receptor activation” (Journal of Biomedical Science, 2009)
